We go through 2 molecules from patent publication EP2386565A2, “Compounds and methods to inhibit or augment an inflammatory response” (Cambridge Enterprise Ltd., priority 1999, dated 2000).

Structures are written as SMILES. Positions of bridges follow the written chain, without caps; N, C: chain ends. Non-standard residues stand in square brackets, D forms with d. Residues, ends and D or L forms follow the SMILES beside them.

In data set [1] the test system is MCP-1 induced calcium flux. The experiment in a line: Intracellular calcium flux, MCP-1 as agonist. The format is cell-based.
The target in the next data set is T1, D2s dopamine receptors (Homo sapiens, UniProt P14416).
T1 construct: purchased RBI/Sigma D-179; host or cells: membranes
Briefly: Competition of 3H-spiperone binding to membranes. The settings on record: 100 µM highest concentration tested. As to the method: For dopamine receptor binding, membranes (D-179, RBI/Sigma) are diluted into binding buffer (75 mM Tris pH 7.4, 12.5 mM MgCl2 and 2 mM EDTA). For example, 10 µl of membranes are diluted in 500 µl of binding buffer (i.e., 1:50 dilution), which is aliquoted into labelled tubes. Cold competitor or test competitor is added, (e.g., 5 µl of 100x stock solution; 5 µl of 1 mM haloperidol solution (H-100, RBI/Sigma in DMSO). Radioligand is then added (^3H-Spiperone, TRK 818, Amersham, 250 µCi in 250 µl, 10.5 µM at 95 Ci/mmol). For competition studies, 0.5 nM is used. A 100x stock (i.e., 50 nM) is made by diluting the commercial stock 1:210 in binding buffer, and 5 µl is added to every tube. Control tubes have radioligand but no membranes. The mixtures are vortexed, then spun very briefly. The mixtures are then incubated for 1 hour at 27°C in a water bath. The mixture is filtered through GF/C filters over a vacuum. Each filter is pre-soaked in polyethyleneimine (0.3% in water; add 1 ml of 10% stock (P-261; RBI/Sigma) to 33 ml of MilliQ water). The tubes are washed with 2-3 ml of wash buffer (50 mM Tris pH 7.4) and the wash filtered. The filters are then rinsed with 3 × 5 ml of wash buffer, air dried, placed in a scintillation vial and 4.5 ml of scintillant added. The activity on the filter is then determined.

The nature of data set [2]: Stability against acid hydrolysis. The data set is classed as physicochemical. The settings on record: pH 2.0 for 2 hrs at 37°C. From the text: For example, to prepare a peptide 3 derivative, peptide 3(3-12)[MCP-1] was modified according to Jameson et al. (Nature, 368, 744 (1994)), which yielded CRD-Cys13Leu4Ile11peptide 3(3-12)[MCP-1] (Figure 3).
Data set [3] deals with antigen specific antibody recall response. Briefly: Antigen (scFv) recall response, safety and serum levels after single i.v. dose. The data set is classed as in vivo, Cynomolgus monkeys. As to the method:
Cynomolgus monkeys were immunized with antigen that is a single chain Fv (scFv) protein. Each animal previously received 3 i.v. injections of the antigen and all developed high serum titers. Five animals were randomly divided into 2 groups. Two animals served as PBS treated controls and 3 were treated i.v. with 50 mg/kg CRD-Leu4Ile11Cys13 peptide 3(3-12)[MCP-1]. Thirty minutes following CRD-Leu4Ile11Cys13 peptide 3(3-12)[MCP-1] treatment all animals were challenged i.v. with 3.5 mg/kg antigen. In addition, animals were challenged intradermal with each of the following in a volume of 50 µl:PBS; 50 µg antigen; 5 µg antigen; 0.5 µg antigen; 500 ng MCP-1; or 50 ng LPS. Serum was collected at 10 minutes, 30 minutes, 60 minutes, 4 hours, and 24 hours. Animals were sacrificed 24 hours after CRD-Leu4Ile11Cys13peptide 3(3-12)[MCP-1] injection and complete necropsy performed and tissues fixed for histopathology. Fixed and frozen skin samples were harvested for histopathology and immunohistochemistry. Blood, spleen, and lymph node were harvested for assessment of cell function in migration assay, proliferation assay, and antigen specific antibody and cytokine recall. Blood was also analyzed pre- and post-CRD-Leu4Ile11Cys13 peptide 3(3-12)[MCP-1] injection for hematology parameters and serum chemistry. Serum levels were evaluated by an LC-MS method (limit of quantitation = 1 µg/ml) pre-treatment and then at 10 minutes, 30 minutes, 60 minutes, 4 hours and 20-24 hours after injection. Urinalysis was performed pre- and post-CRD-Leu4Ile11Cys13 peptide 3(3-12)[MCP-1] injection.

In data set [4] the test system is MCP-1 induced human monocyte migration. The experiment in a line: Migration of freshly prepared peripheral blood monocytes, MCP-1. The format is cell-based. As to the method:
(§1) Agents may also be screened in a chemotactic assay which employs human neutrophils, eosinophils, mast cells, basophils, platelets, lymphocytes or monocytes. For monocytes, 9 mls of fresh blood are transferred to a tube containing 1 ml of 3.8% sodium citrate, and left at room temperature for 15 minutes. Five mls of this anti-coagulated blood are carefully layered over 3.5 ml Polymorphprep® (Nycomed Pharma, Oslo), and centrifuged at 500 g for 35 minutes per the manufacturer's instructions. The top band at the sample/medium interface contains monocytes. The monocytes are carefully removed with a glass pipette, and reconstituted to the original volume (5 ml). The cells are washed with PBS plus 10% fetal calf serum, and centrifuged at 400 g for 10 minutes. The washing step is repeated three times before the cells are counted. Cells are resuspended at 1 × 10^7 cells/ml in RPMI-1640 + 10% fetal calf serum (FCS). The monocytes are cultured for two days at 37°C in a humidified atmosphere of 5% CO2-
(§2) On day 2, the cells are counted, spun down, and reconstituted to 1 × 10^7 cells/ml in Gey's balanced salt solution + 1 mg/ml bovine serum albumin (BSA). […]

Data set [5] has as its system IL8 induced human monocyte migration. Briefly: Migration of freshly prepared peripheral blood monocytes, IL8. The data set is classed as cell-based. As to the method: as §1, §2

T1 sequence (P14416 1-414 isoform P14416-2): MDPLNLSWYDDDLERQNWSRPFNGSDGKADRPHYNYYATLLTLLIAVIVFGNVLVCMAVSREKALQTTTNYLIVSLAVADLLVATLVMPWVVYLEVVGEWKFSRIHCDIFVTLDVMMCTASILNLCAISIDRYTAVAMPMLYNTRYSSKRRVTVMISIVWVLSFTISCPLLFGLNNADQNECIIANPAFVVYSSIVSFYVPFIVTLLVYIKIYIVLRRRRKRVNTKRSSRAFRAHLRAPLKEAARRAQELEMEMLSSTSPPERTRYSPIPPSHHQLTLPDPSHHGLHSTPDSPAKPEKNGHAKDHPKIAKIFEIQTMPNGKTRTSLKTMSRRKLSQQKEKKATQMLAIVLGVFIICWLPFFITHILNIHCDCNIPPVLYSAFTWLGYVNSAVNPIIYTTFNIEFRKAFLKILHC

`CC[C@@H](C)[C@H]1NC(=O)[C@@H](CCC(N)=O)NC(=O)[C@H](N)CSSC[C@H](C(N)=O)NC(=O)[C@@H](CC(C)C)NC(=O)[C@@H](CC(=O)O)NC(=O)[C@H]2CCCN2C(=O)[C@@H](CCCCN)NC(=O)[C@@H](CCC(N)=O)NC(=O)[C@@H](CCCCN)NC(=O)[C@@H](Cc2c[nH]c3ccccc23)NC1=O` (H-[dC][dQ][dI][dW][dK][dQ][dK][dP][dD][dL][dC]-NH2; disulfide 1-11): the “MCP-1 induced calcium flux (in words)” value in data set [1] is “did not block”. Moreover, the “ED50 for competition of spiperone binding to short splice variant D2 dopamine receptor” value on D2s dopamine receptors is given as more than 100 µM. For the same molecule, in data set [2], the “degradation by acid hydrolysis” value is on record as less than 10%. Further, in data set [3] (50 mg/kg i.v.), the “hematology and serum chemistry (in words)” value was “No clinically significant changes”; the “period with detectable drug levels in serum after treatment” value stood at 4 h. In data set [3] (single i.v. dose 50 mg/kg), the “antigen specific antibody in recall responses of splenocytes, lymph node cells and PBL (in words)” value is on record as “lowest detectable levels of antigen specific antibody”.
Regarding `CC[C@H](C)[C@H](NC(=O)[C@H](C)NC(=O)[C@H](CC(=O)O)NC(=O)[C@@H]1CCCN1C(=O)[C@H](CCC(N)=O)NC(=O)[C@H](C)N)C(=O)N[C@@H](CC(N)=O)C(=O)N[C@@H](C)C(=O)N1CCC[C@H]1C(=O)N[C@H](C(=O)N[C@H](C(=O)N[C@@H](CS)C(=O)N[C@@H](CS)C(=O)O)[C@@H](C)O)C(C)C` [Peptide 1] (H-AQPDAINAPVTCC-OH; N-terminus and C-terminus assumed), the “% inhibition at 100 µM versus MCP-1” value in data set [4] is listed as “n.s”. Moreover, in data set [5], the “% inhibition at 100 µM versus IL8” value is on record as “n.s”.
